The text below walks through data of patent US20260048099A1, “SYNERGISTIC INTERACTIONS FOR IMPROVED CANCER TREATMENT” (THE UNITED STATES OF AMERICA, AS REPRESENTED BY THE …, priority 2022, published 2026).

Assay [1] relates to xenograft models. Particulars: cited from earlier work.
Assay [2] relates to tumor-infiltrating CD8^+T, NK cells and DC populations in EO771 tumors. In words: Flow cytometry and IHC of immune infiltrates in EO771 tumors and draining lymph nodes. The class given is in vivo, C57BL/6 mice. Particulars: flow cytometry. As for the experimental part:
EO771 tumors were analyzed by flow cytometry and immunohistochemistry (IHC) to explore the changes in the tumor immune phenotype upon hetIL-15 treatment. The shorter treatment schedule consisting of 3 hetIL-15 injections was used for these analyses and the tumors were assessed 48 h after the last injection (FIG. 1A). […] Overall, hetIL-15 administration altered the tumor microenvironment by promoting the intratumoral infiltration of activated cytotoxic T and NK cells, as we previously reported (Bergamaschi et al., 2020; Ng et al., 2017).
Guided by our transcriptomic data and our recent report (Bergamaschi et al., 2020), we established a flow cytometry staining protocol (FIG. 3B) that allows distinction of different myeloid cell populations (Bottcher et al., 2018; Guilliams et al., 2016). CD103^+cDC1s were defined as Lin(NK1.1,CD19,B220,CD3)^negCD64^−MHCII^+CD11c^+CD103^+CD11b^−; CD11b^+cDC2s were defined as Lin(NK1.1,CD19,B220,CD3)^negCD64^−MHCII^+CD11c^+CD103^−CD11b^+ and macrophages were defined as Lin(NK1.1, CD19,B220,CD3)^negCD64^+F4/80^+. […] Importantly, tumor infiltration by both […] and CD103^intCD11b^+DCs inversely correlated with the EO771 tumor size in hetIL-15 treated animals 48 hrs after the 3rd hetIL-15 injection (FIG. 3F). In contrast, no correlation between intratumoral CD11b^+cDC2s and tumor size was observed (FIG. 3F).
Tissue samples, including tumors, were fixed in 10% neutral buffered formalin (NBF, Sigma) then routinely processed and paraffin embedded. Tumor and lung sections were dewaxed and rehydrated and then were stained with hematoxylin and eosin (H&E). For immunohistochemistry, sections were antigen-retrieved with heat-induced or enzymatic method. Peroxidase activity was blocked using 1.5% hydrogen peroxide. Sections were blocked with different blocking protocols, depending on the antibody. […]
At necropsy tumors and dLNs were processed for flow cytometric analysis. […] The samples were acquired on a Fortessa (BD Biosciences) flow cytometer, and the data were analyzed using the FlowJo software (Tree Star).

Assay [3] relates to NK-92 cells. In words: IFN-γ production by stimulated NK-92 cells. The class given is cell-based. Particulars: stimulation of NK-92 cells.

Turning to `CC(C)(C)c1cc(NC(=O)Nc2ccc(-c3cn4c(n3)sc3cc(OCCN5CCOCC5)ccc34)cc2)no1.Cl.Cl` [AC220, N-(5-tert-butyl-isoxazol-3-yl)-N′-{4-[7-(2-morpholin-4-yl-ethoxy)imidazo[2,1-b][1,3]benzothiazol-2-yl]phenyl}urea dihydrochloride], the “Lowest dose with activity in animal models” value in assay [1] (doses as low as) is on record as 1 mg/kg. The Efficacy and tolerability entry in assay [1] (xenograft models) is “good efficacy and tolerability”. Besides, in assay [2], the “Intratumoral CD11b+cDC2 (cells per gram of tissue)” value is recorded as “increased infiltration of CD11b^+cDC2s”; the “Intratumoral CD103+cDC1 (cells per gram of tissue)” value is listed as “a minor effect on CD103+cDC1s, decreasing this DC population”; the “Intratumoral CD103intCD11b+DC (cells per gram of tissue)” value is given as “no significant difference”.

B1: IL-12p70: active IL-12 heterodimer of IL-12A (p35) and IL-12B (p40), referred to as p70 (protein, UniProt P29459 23-219; P29460 23-328, looked up)
Interleukin-12 subunit alpha: RNLPVATPDPGMFPCLHHSQNLLRAVSNMLQKARQTLEFYPCTSEEIDHEDITKDKTSTVEACLPLELTKNESCLNSRETSFITNGSCLASRKTSFMMALCLSSIYEDLKMYQVEFKTMNAKLLMDPKRQIFLDQNMLAVIDELMQALNFNSETVPQKSSLEEPDFYKTKIKLCILLHAFRIRAVTIDRVMSYLNAS
Interleukin-12 subunit beta: IWELKKDVYVVELDWYPDAPGEMVVLTCDTPEEDGITWTLDQSSEVLGSGKTLTIQVKEFGDAGQYTCHKGGEVLSHSLLLLHKKEDGIWSTDILKDQKEPKNKTFLRCEAKNYSGRFTCWWLTTISTDLTFSVKSSRGSSDPQGVTCGAATLSAERVRGDNKEYEYSVECQEDSACPAAEESLPIEVMVDAVHKLKYENYTSSFFIRDIIKPDPPKNLQLKPLKNSRQVEVSWEYPDTWSTPHSYFSLTFCVQVQGKSKREKKDRVFTDKTSATVICRKNASISVRAQDRYYSSSWSEWASVPCS
Turning to B1, in assay [3], the IFN-γ production result is “results in IFN-γ production”.
